Marks after values point to notes of the source that are not given here.

Data on 15 compounds can be found in patent US20040034105A1, “Use of 1-phenyl-3-dimethylaminopropane compounds for treatment of urinary incontinence” (Gruenenthal GmbH, priority 2000, published 2004).

Test [1] has as its system female Sprague-Dawley rats. Kind of test: Cystometry tests on conscious fresh rats. The test is classed as in vivo, rat. The note with it: for BC Bladder Capacity (change compared to the baseline value) / ICI Inter-Contraction Interval (change compared to the baseline value) / TP Threshold Pressure (change compared to the baseline value): effect maximum, mean of 3 micturition cycles; for Activity of the enantiomers of racemic compound 1 in cystometry: iv. As for the experimental part:
Three days after implantation of bladder and venous catheters the animals were investigated in the conscious state while freely moving. The bladder catheter was connected to a pressure gauge and an injection pump. The animals were placed in metabolic cages that enable the volume of urine to be measured. Physiological saline solution was infused (10 ml/hour) into the emptied bladder and the bladder pressure and volume of urine were continuously recorded. After a stabilisation phase a 20-minute phase was recorded that was characterised by normal, reproducible micturition cycles. The following parameters among others were measured:
threshold pressure TP, bladder pressure immediately before micturition,
bladder capacity BC, residual volume after prior micturition plus volume of infused solution during the filling phase,
intercontraction interval ICI, i.e. the time interval between consecutive micturition.
An increase in the threshold pressure (TP) indicates an important therapeutic effect in one of the medical conditions covered by the invention. Also, the intercontraction interval (ICI) is an important parameter for measuring the physiological effectiveness of a substance in the treatment of urinary incontinence, as is the bladder capacity (BC). In this connection, on account of the widely differing causes of the symptoms of these disease patterns it is not necessary to influence positively all three parameters in order for a medicament to be effective.
After recording three reproducible micturition cycles to provide a baseline value, the test substances 1 (1.0 mg/kg), 2 (0.1; 0.3 and 0.5 mg/kg), 21 (0.5 mg/kg), 7 (0.3 mg/kg), 8 (1.0 mg/kg), 9 (0.5 mg/kg) and 11 (0.5 mg/kg) in a vehicle comprising 0.9% NaCl were applied intravenously and the effect on the cystometric parameters was recorded at 90 to 120 minutes. In the effect maximum the mean value of 3 micturition cycles was determined and recorded as a percentage change compared to the baseline value (Table 1).

The next test concerns female rats. The test is described as follows: Cystometry investigations in narcotised fresh rats (suppression of spontaneous bladder contractions). In kind it is in vivo, rat. The note with it: intravenous, cumulative, mean value from at least two experiments. As for the experimental part: The cystometric investigation was carried out on fresh female rats according to the method of Kimura et al. (Kimura et al., 1996, Int. J. Urol. 3: 218-227). The abdomen of narcotised ventilated rats is opened and the ureter is ligated. The urine is drawn off from the kidneys. A catheter is inserted into the bladder and secured in place. […] The test substance is applied intravenously in a cumulative manner after stable starting values were reached. An effect on the bladder function is manifested by the suppression of the spontaneous contractions. The disappearance of the contractions over a period of 10 minutes serves as a parameter for their suppression.
With all the substances listed there was a measurable suppression of the spontaneous contractions in rats, Table 2 showing the mean value of the lowest dose from at least two experiments, in which contractions disappeared for the first time over a period of 10 minutes.

For the compound `CC[C@](O)(c1cccc(OC)c1)[C@H](C)CN(C)C.Cl` (racemic) [Compound 1, (2RS,3RS)-1-dimethylamino-3-(3-methoxyphenyl)-2-methylpentan-3-ol, hydrochloride], in test [1] (1.0 mg/kg iv), the “BC Bladder Capacity (change compared to the baseline value)” value is on record as “+31%***”, the “ICI Inter-Contraction Interval (change compared to the baseline value)” value is “+42%” and the “TP Threshold Pressure (change compared to the baseline value)” value is given as “+94%**”.

In the case of `CC[C@](O)(c1ccc(Cl)c(Cl)c1)[C@H](C)CN(C)C.Cl` (racemic) [Compound 3, (2RS,3RS)-3-(3,4-dichlorophenyl)-1-dimethylamino-2-methylpentan-3-ol, hydrochloride], the “Lowest Dose at which contractions disappeared for the first time over a period of 10 minutes” value (shortened to “Lowest Dose … over a period of 10 minutes”) with female rats is reported as 23.3 mg/kg.

Turning to `CC[C@](O)(c1cccc(C(F)F)c1)[C@H](C)CN(C)C.Cl` (racemic) [Compound 4, (2RS,3RS)-3-(3-difluoromethylphenyl)-1-dimethylamino-2-methylpentan-3-ol, hydrochloride], the “Lowest Dose … over a period of 10 minutes” value with female rats was 1.7 mg/kg.

For the compound `CC[C@](O)(c1cccc(SC)c1)[C@H](C)CN(C)C.Cl` (racemic) [Compound 5, (2RS,3RS)-1-dimethylamino-2-methyl-3-(3-methylsulfanylphenyl)-pentan-3-ol, hydrochloride], the “Lowest Dose … over a period of 10 minutes” value in the test with female rats turned out to be 2.3 mg/kg.

Consider `COc1cccc(C(O)(CCN(C)C)C(C)(C)C)c1.Cl` (racemic) [Compound 6, (3RS)-1-dimethylamino-3-(3-methoxyphenyl)-4,4-dimethylpentan-3-ol, hydrochloride], for which the “Lowest Dose … over a period of 10 minutes” value in the test on female rats amounted to 16.7 mg/kg.

As to `CCC(O)(c1cccc(O)c1)C(C)CN(C)C.Cl` (racemic) [Compound 7, (2RS,3RS)-3-(3-dimethylamino-1-ethyl-1-hydroxy-2-methylpropyl)-phenol, hydrochloride], in test [1] (0.3 mg/kg iv), the “BC Bladder Capacity (change compared to the baseline value)” value is given as “+32%*”, the “ICI Inter-Contraction Interval (change compared to the baseline value)” value was “+28%*” and the “TP Threshold Pressure (change compared to the baseline value)” value is “+95%**”.

As for `C[C@H](CN(C)C)[C@@](C)(O)c1cccc(O)c1.Cl` (racemic) [Compound 8, (1RS,2RS)-3-(3-dimethylamino-1-hydroxy-1,2-dimethylpropyl)-phenol, hydrochloride], in test [1] (1.0 mg/kg iv), the “BC Bladder Capacity (change compared to the baseline value)” value is listed as “+7%”, the “ICI Inter-Contraction Interval (change compared to the baseline value)” value was “+14.4%” and the “TP Threshold Pressure (change compared to the baseline value)” value is on record as “+60%**”.

For `CCC(O)(c1cccc(OC)c1)C1(CN(C)C)CCCCC1.Cl` (racemic) [Compound 13, (1RS)-1-(1-dimethylaminomethylcyclohexyl)-1-(3-methoxyphenyl)-propan-1-ol, hydrochloride], the “Lowest Dose … over a period of 10 minutes” value in the test on female rats worked out at 20.0 mg/kg.

Consider `CC[C@](O)(c1ccc(Cl)cc1)[C@H](C)CN(C)C.Cl` (racemic) [Compound 14, (2RS,3RS)-3-(4-chlorophenyl)-1-dimethylamino-2-methylpentan-3-ol, hydrochloride], for which the “Lowest Dose … over a period of 10 minutes” value with female rats is listed as 20.0 mg/kg.

For `CC[C@](O)(c1cccc(OC)c1)[C@H](C)CN(C)C.Cl` [Compound 2, (+)-(2R,3R)-1-dimethylamino-3-(3-methoxyphenyl)-2-methylpentan-3-ol, hydrochloride], in test [1] (0.1 mg/kg iv), the “BC Bladder Capacity (change compared to the baseline value)” value is given as “+7.8%”, the “ICI Inter-Contraction Interval (change compared to the baseline value)” value is “+15.6%” and the “TP Threshold Pressure (change compared to the baseline value)” value is on record as “+28.5%**”. In test [1] (0.3 mg/kg iv), the “BC Bladder Capacity (change compared to the baseline value)” value was “+33%*”, the “ICI Inter-Contraction Interval (change compared to the baseline value)” value was “+28%*” and the “TP Threshold Pressure (change compared to the baseline value)” value is given as “+122%**”. In addition, in test [1] (0.5 mg/kg iv), the “BC Bladder Capacity (change compared to the baseline value)” value is listed as “+20.6%*”, the “ICI Inter-Contraction Interval (change compared to the baseline value)” value is recorded as “+28.6%**” and the “TP Threshold Pressure (change compared to the baseline value)” value is given as “+77.5%**”. Besides, the “Activity of the enantiomers of racemic compound 1 in cystometry” value in test [1] is listed as “effectively active”.

For `C[C@H](CN(C)C)[C@@](C)(O)c1cccc(O)c1.Cl` [Compound 9, (+)-(1R,2R)-3-(3-dimethylamino-1-hydroxy-1,2-dimethylpropyl)-phenol, hydrochloride], in test [1] (0.5 mg/kg iv), the “BC Bladder Capacity (change compared to the baseline value)” value is given as “+50%**”, the “ICI Inter-Contraction Interval (change compared to the baseline value)” value is on record as “+21%*” and the “TP Threshold Pressure (change compared to the baseline value)” value is “+56%**”.

Take `C[C@H](CN(C)C)[C@@](C)(O)c1cccc(O)c1.Cl` [Compound 10, (+)-(1R,2R)-3-(3-dimethylamino-1-hydroxy-1,2-dimethylpropyl)-phenol, hydrochloride]: the “Lowest Dose … over a period of 10 minutes” value in the test with female rats is reported as 0.2 mg/kg.

`CC[C@@H](c1cccc(O)c1)[C@@H](C)CN(C)C.Cl` [Compound 11, (−)-(1R,2R)-3-(3-dimethylamino-1-ethyl-2-methylpropyl)-phenol, hydrochloride]: in test [1] (0.5 mg/kg iv), the “BC Bladder Capacity (change compared to the baseline value)” value is on record as “+11%”, the “ICI Inter-Contraction Interval (change compared to the baseline value)” value is given as “+22.6%” and the “TP Threshold Pressure (change compared to the baseline value)” value is recorded as “+9%”.

With `CC[C@](OC(C)=O)(c1cccc(OC)c1)[C@H](C)CN(C)C.Cl` [Compound 12, (+)-(1R,2R)-acetic acid-3-dimethylamino-1-ethyl-1-(3-methoxyphenyl)-2-methylpropyl ester, hydrochloride], in the test with female rats, the “Lowest Dose … over a period of 10 minutes” value is on record as 30.0 mg/kg.

Regarding `CC[C@@](O)(c1cccc(OC)c1)[C@@H](C)CN(C)C.Cl` [Compound 21, (−)-(2S,3S)-1-dimethylamino-3-(3-methoxyphenyl)-2-methylpentan-3-ol, hydrochloride], in test [1] (0.5 mg/kg iv), the “BC Bladder Capacity (change compared to the baseline value)” value is listed as “+3%”, the “ICI Inter-Contraction Interval (change compared to the baseline value)” value is reported as “+10%” and the “TP Threshold Pressure (change compared to the baseline value)” value is recorded as −1.1%. Besides, the “Activity of the enantiomers of racemic compound 1 in cystometry” value in test [1] is “plays only a contributory role”.
